Literature values, collected in US20040077556A1, “Compositions and methods for promoting weight loss, thermogenesis, appetite suppression, lean muscle mass, increasing metabolism and boosting energy levels, and use as a dietary supplement in mammals” (priority 2002, published 2004).
Like-named read-outs stand apart in the source and are kept apart here.

Experiments:
[1] = system: brown adipose tissue thermogenesis
[2] = cold-exposed rats

Question: Which “decrease of food intake” value (15 mg per kg of bodyweight per day) does the source give for `NCCc1ccccc1` [PEA, phenylethylamine] here?
Answer: roughly one-third

Question: What about the “maximum reduction of food intake” value (50 mg per kg of bodyweight) of the same compound?
Answer: roughly twenty

Question: What about the “reduction of food intake” value (15-50 mg per kg of bodyweight) of the same compound?
Answer: 20-30%

Question: And the “tolerance to appetite-reducing effect” value (after four weeks)?
Answer: no tolerance

Question: For `Cn1c(=O)c2c(ncn2C)n(C)c1=O` [caffeine], which effect on thermogenesis ([1]; caffeine alone) is on record?
Answer: little or no effect

Question: Which “increase in cAMP” value (cAMP) does the source give for `O=c1c(O)c(-c2ccc(O)c(O)c2)oc2cc(O)cc(O)c12` [quercetin, 3,3′,4′,5-7-pentahydroxyflavone] here?
Answer: dose-dependent increase

Question: Which “increase of maximum thermogenesis” value ([2]; fed) does the source give for `Cn1c(=O)c2[nH]cnc2n(C)c1=O.NCCN` [aminophylline, theophylline ethylenediamine] here?
Answer: 14.4%

Question: What about the “increase of maximum thermogenesis” value ([2]; unfed) of the same compound?
Answer: 19.4%

Question: What about the “noradrenaline-stimulated thermogenesis after pretreatment” value ([2]; unfed, to levels seen in fed rats, dropped 18.2 percent without pretreatment) of the same compound?
Answer: restored

Question: With `O=c1c(O)c(-c2ccc(O)c(O)c2)oc2cc(O)ccc12` [Fisetin, 3,3′,4′,7-tetrahydroxyflavone] as the compound, how does the “increase in cAMP” value (cAMP) read?
Answer: dose-dependent increase

Question: With `O=C(O[C@@H]1Cc2c(O)cc(O)cc2O[C@@H]1c1cc(O)c(O)c(O)c1)c1cc(O)c(O)c(O)c1` [EGCG, (2R,3R)-2-(3,4,5-Trihydroxyphenyl)-3,4-dihydro-1[2H]-benzopyran-3,5,7-triol 3-(3,4,5-trihydroxybenzoate)] as the compound, how does the increase in thermogenesis ([1]; EGCG alone, 200 μM) read?
Answer: 40%

Question: What about the effect on thermogenesis ([1]; EGCG alone, 50 and 100 μM) of the same compound?
Answer: no effect
